The values below come from patent publication EP2380597A1, “Cyclopeptide derivatives and uses thereof” (Technische Universität München, priority 2010, dated 2011).

Structures are written as SMILES. *1 amine or outer side, *2 acyl side, *3 side chain or, on linkers, in order; H or OH if unused. Where a SMILES comes first, the peptide text is derived from it. Bridges are numbered along the chain shown (N, C = ends). Roman numbers before positions name the chains, in order. [ ]: non-standard residue; d: D form. The star is where a group is joined. dAla(N-(6-guanidinohexyl)) = C[C@@H](NCCCCCCNC(=N)N)C(=O)O; DOTA = O=C(O)CN1CCN(CC(=O)O)CCN(CC(=O)*)CCN(CC(=O)O)CC1; X6 = C[C@H](C(=O)[*:2])N(CCCCCCCNC(=O)c1ccc(F)cc1)[*:1]; X14 = C[C@H](C(=O)[*:2])N(CCCCCNC(=O)c1ccc(F)cc1)[*:1]; X8 = C[C@H](C(=O)[*:2])N(CCCCCCNC(=O)c1ccc(F)cc1)[*:1]; X5 = C[C@H](C(=O)[*:2])N(CCCCCCNCc1cccc2ccccc12)[*:1]; X9 = C[C@H](C(=O)[*:2])N(CCCCNC(=O)c1ccc(F)cc1)[*:1]; X4 = C[C@H](C(=O)[*:2])N(CCCCCCNCc1ccccc1)[*:1]; X1 = C[C@@H](C(=O)[*:2])N(CCCCCCNC(=N)N)[*:1]; X7 = CC(=O)NCCCCCCN([C@H](C)C(=O)[*:2])[*:1]; X3 = C[C@H](C(=O)[*:2])N(CCCCCCN[*:3])[*:1]; X10 = C[C@@H](C(=O)[*:2])N(CCCCCCN)[*:1]; X12 = C[C@H](C(=O)[*:2])N(CCCCCCN)[*:1]; X2 = C[C@H](C(=O)[*:2])N(CCCCCCCN)[*:1]; X13 = C[C@H](C(=O)[*:2])N(CCCCCN)[*:1]; 2Nal = N[C@@H](Cc1ccc2ccccc2c1)C(=O)O; Suberoyl = O=C(CCCCCCC(=O)[*:2])[*:1]; X11 = C[C@H](C(=O)[*:2])N(CCCCN)[*:1]; Adipoyl = O=C(CCCCC(=O)[*:2])[*:1]; Gly(N-(CH2)6NH2) = NCCCCCCNCC(=O)O; Suc = O=C(CCC(=O)[*:2])[*:1]

Broadly, the IC50 is the midpoint of a concentration-inhibition curve. Read a low IC50 as greater potency in that assay.

The target of one experiment is T1, CXCR4 receptor (Homo sapiens, UniProt P61073).
T1 construct: endogenous in cells; host or cells: Jurkat cells
T1 sequence (P61073 whole entry): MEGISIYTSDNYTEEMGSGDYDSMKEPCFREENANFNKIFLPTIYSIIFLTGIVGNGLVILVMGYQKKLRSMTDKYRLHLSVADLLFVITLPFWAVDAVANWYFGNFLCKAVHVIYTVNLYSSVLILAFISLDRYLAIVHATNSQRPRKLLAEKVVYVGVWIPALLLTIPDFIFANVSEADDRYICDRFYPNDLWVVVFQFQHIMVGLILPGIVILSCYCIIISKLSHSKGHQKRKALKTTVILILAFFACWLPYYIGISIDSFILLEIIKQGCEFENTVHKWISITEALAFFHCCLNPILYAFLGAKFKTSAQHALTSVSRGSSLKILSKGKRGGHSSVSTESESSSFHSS
The experiment can be described thus: Receptor binding assay (competition with 125I tracer on Jurkat cells). The following applies: tracer cyclo(-D-Tyr^1 [^125I]-Arg^2-Arg^3-Nal^4-Gly^5), 2 h at room temperature, D-Ala N-hexyl series, R varied. The method, then:
For receptor binding assays cells were resuspended in PBS/0.2 % BSA. A total of 200 µl of the suspension containing 400,000 Jurkat cells were incubated with 25 µl of the tracer solution (containing 100000cpm / 25µl, approx. 0.1 nM) and 25 µl of the diluent or the competitor at different concentrations. For determination of IC50 values, cyclo(-D-Tyr^1 [^125I]-Arg^2-Arg^3-Nal^4-Gly^5) was used as a tracer. Nonspecific binding was determined in the presence of 1 µM cold cyclo(-D-Tyr^1[^127I]-Arg^2-Arg^3-Nal^4-Gly^5). After shaking for 2 h at room temperature, the incubation was terminated by centrifugation at 2000 rpm for 5 min. Cell pellets were washed once with 400µl cold PBS followed by a second centrifugation step. Cell bound radioactivity was determined by using a gamma counter. Experiments were repeated 2-3 times in triplicates. IC50 values of the compounds were calculated by nonlinear regression using GraphPad Prism (GraphPad Prism 4.0 Software, Inc., San Diego, CA, USA). Each data point is the average of three determinations.
The compound `C[C@@H]1C(=O)N[C@@H](CCCNC(=N)N)C(=O)N[C@@H](Cc2ccc3ccccc3c2)C(=O)NCC(=O)N[C@H](Cc2ccc(O)cc2)C(=O)N1CCCCCCN` [ya(Hex)RNalG] (cyclo([2Nal]G[dY][X12]R)) registered an IC50 of 0.3 ± 0.2 nM.
Still for that read-out and setting: the result for `C[C@@H]1C(=O)N[C@@H](CCCNC(=N)N)C(=O)N[C@@H](Cc2ccc3ccccc3c2)C(=O)NCC(=O)N[C@H](Cc2ccc(O)cc2)C(=O)N1CCCCCCNCc1cccc2ccccc12` [ya(Hex,1 Nap) RNalG, cyclo(-D-Tyr-(α-6-aminohexyl,1-naphthylmethyl)-D-Ala-R-Nal-G)] (cyclo([2Nal]G[dY][X5]R)) reads 5.1 ± 1.3 nM.
`C[C@@H]1C(=O)N[C@@H](CCCNC(=N)N)C(=O)N[C@@H](Cc2ccc3ccccc3c2)C(=O)NCC(=O)N[C@H](Cc2ccc(O)cc2)C(=O)N1CCCCCCNCc1ccccc1` [ya(Hex, Bz) RNalG, cyclo(-D-Tyr-(α-6-aminohexyl, benzyl)-D-Ala-R-Nal-G)] (cyclo([2Nal]G[dY][X4]R)) yielded an IC50 of 4.2 ± 1.4 nM.
Turning to `C[C@@H]1C(=O)N[C@@H](CCCNC(=N)N)C(=O)N[C@@H](Cc2ccc3ccccc3c2)C(=O)NCC(=O)N[C@H](Cc2ccc(O)cc2)C(=O)N1CCCCCCNC(=O)c1ccc(F)cc1` [ya(Hex, FBz) RNalG, cyclo(-D-Tyr-(α-6-aminohexyl, 4-fluorobenzoic acid)-D-Ala-R-Nal-G)] (cyclo([2Nal]G[dY][X8]R)), the IC50 was 21.4 ± 5.8 nM.
On the same count and under the same terms, the result for `C[C@@H]1C(=O)N[C@@H](CCCNC(=N)N)C(=O)N[C@@H](Cc2ccc3ccccc3c2)C(=O)NCC(=O)N[C@H](Cc2ccc(O)cc2)C(=O)N1CCCCCCNC(=N)N` [ya(Hex, Gua) RNalG, cyclo(-D-Tyr-(α-6-guanidinohexyl)-D-Ala-R-Nal-G)] (cyclo([dY][dAla(N-(6-guanidinohexyl))]R[2Nal]G)) reads 0.04 ± 0.02 nM.
`CC(=O)NCCCCCCN1C(=O)[C@@H](Cc2ccc(O)cc2)NC(=O)CNC(=O)[C@H](Cc2ccc3ccccc3c2)NC(=O)[C@H](CCCNC(=N)N)NC(=O)[C@H]1C` [ya(Hex,Ac) RNalG, cyclo(-D-Tyr-(α-6-aminohexyl, Ac)-D-Ala-R-Nal-G)] (cyclo([2Nal]G[dY][X7]R)): the IC50 amounted to 44.1 ± 6.2 nM.
On to `C[C@@H]1C(=O)N[C@@H](CCCNC(=N)N)C(=O)N[C@@H](Cc2ccc3ccccc3c2)C(=O)NCC(=O)N[C@H](Cc2ccc(O)cc2)C(=O)N1CCCCCCNC(=O)CN1CCN(CC(=O)O)CCN(CC(=O)O)CCN(CC(=O)O)CC1` [ya(Hex,DOTA) RNalG, cyclo(-D-Tyr-(α-6-aminohexyl, DOTA)-D-Ala-R-Nal-G)] (cyclo([2Nal]G[dY][X3](DOTA)R)), for which the IC50 came out at 509.7 ± 0.2 nM.

Staying with this experiment, now noted: tracer cyclo(-D-Tyr^1 [^125I]-Arg^2-Arg^3-Nal^4-Gly^5), 2 h at room temperature, Gly analogue.
As for `N=C(N)NCCC[C@@H]1NC(=O)CN(CCCCCCN)C(=O)[C@@H](Cc2ccc(O)cc2)NC(=O)CNC(=O)[C@H](Cc2ccc3ccccc3c2)NC1=O` [yG(Hex)RNalG, cyclo(-D-Tyr-(α-6-aminohexyl)-G-R-Nal-G)] (cyclo([2Nal]G[dY][Gly(N-(CH2)6NH2)]R)), the IC50 came out at 104 nM.

Staying with this experiment, now noted: tracer cyclo(-D-Tyr^1 [^125I]-Arg^2-Arg^3-Nal^4-Gly^5), 2 h at room temperature, L-Ala series.
In turn, `C[C@H]1C(=O)N[C@@H](CCCNC(=N)N)C(=O)N[C@@H](Cc2ccc3ccccc3c2)C(=O)NCC(=O)N[C@H](Cc2ccc(O)cc2)C(=O)N1CCCCCCN` [yA(Hex)RNalG] (cyclo([2Nal]G[dY][X10]R)) came in with an IC50 of 94.2 ± 38 nM.
On the same count and under the same terms, in the case of `C[C@H]1C(=O)N[C@@H](CCCNC(=N)N)C(=O)N[C@@H](Cc2ccc3ccccc3c2)C(=O)NCC(=O)N[C@H](Cc2ccc(O)cc2)C(=O)N1CCCCCCNC(=N)N` [yA(Hex,Gua)RNa IG, cyclo(-D-Tyr-(α-6-guanidinohexyl)-L-Ala-R-Nal-G)] (cyclo([2Nal]G[dY][X1]R)) it was 4.4 ± 0.3 nM.

The experiment is the same for the next values; noted with them: tracer cyclo(-D-Tyr^1 [^125I]-Arg^2-Arg^3-Nal^4-Gly^5), 2 h at room temperature, alkyl chain length n varied.
In turn, `C[C@@H]1C(=O)N[C@@H](CCCNC(=N)N)C(=O)N[C@@H](Cc2ccc3ccccc3c2)C(=O)NCC(=O)N[C@H](Cc2ccc(O)cc2)C(=O)N1CCCCN` [ya(But)RNalG, cyclo(-D-Tyr-(α-4-aminobutyl)-D-Ala-R-Nal-G)] (cyclo([2Nal]G[dY][X11]R)) had an IC50 of 0.9 ± 0.1 nM.
With `C[C@@H]1C(=O)N[C@@H](CCCNC(=N)N)C(=O)N[C@@H](Cc2ccc3ccccc3c2)C(=O)NCC(=O)N[C@H](Cc2ccc(O)cc2)C(=O)N1CCCCNC(=O)c1ccc(F)cc1` [ya(But,FBz)RNalG, cyclo(-D-Tyr-(α-4-aminobutyl, 4-fluorobenzoic acid)-D-Ala-R-Nal-G)] (cyclo([2Nal]G[dY][X9]R)), the IC50 was 26 ± 5.7 nM.
Turning to `C[C@@H]1C(=O)N[C@@H](CCCNC(=N)N)C(=O)N[C@@H](Cc2ccc3ccccc3c2)C(=O)NCC(=O)N[C@H](Cc2ccc(O)cc2)C(=O)N1CCCCCCCN` [ya(Hept)RNalG, cyclo(-D-Tyr-(α-7-aminoheptyl)-D-Ala-R-Nal-G)] (cyclo([2Nal]G[dY][X2]R)), the IC50 worked out at 2.4 ± 0.8 nM.
`C[C@@H]1C(=O)N[C@@H](CCCNC(=N)N)C(=O)N[C@@H](Cc2ccc3ccccc3c2)C(=O)NCC(=O)N[C@H](Cc2ccc(O)cc2)C(=O)N1CCCCCCCNC(=O)c1ccc(F)cc1` [ya(Hept,FBz)RNalG, cyclo(-D-Tyr-(α-7-aminoheptyl, 4-fluorobenzoic acid)-D-Ala-R-Nal-G)] (cyclo([dY][X6]R[2Nal]G)) returned an IC50 of 16.5 ± 3.1 nM.
Still for that read-out and setting: in the case of `C[C@@H]1C(=O)N[C@@H](CCCNC(=N)N)C(=O)N[C@@H](Cc2ccc3ccccc3c2)C(=O)NCC(=O)N[C@H](Cc2ccc(O)cc2)C(=O)N1CCCCCN` [ya(Pent)RNalG, cyclo(-D-Tyr-(α-5-aminopentyl)-D-Ala-R-Nal-G)] (cyclo([2Nal]G[dY][X13]R)) it was 1.6 ± 0.3 nM.
Still for that read-out and setting: the result for `C[C@@H]1C(=O)N[C@@H](CCCNC(=N)N)C(=O)N[C@@H](Cc2ccc3ccccc3c2)C(=O)NCC(=O)N[C@H](Cc2ccc(O)cc2)C(=O)N1CCCCCNC(=O)c1ccc(F)cc1` [ya(Pent, FBz)RNalG, cyclo(-D-Tyr-(α-5-aminopentyl, 4-fluorobenzoic acid)-D-Ala-R-Nal-G)] (cyclo([2Nal]G[dY][X14]R)) reads 34.2 ± 9.3 nM.

Still in this experiment, the particulars now being: tracer cyclo(-D-Tyr^1 [^125I]-Arg^2-Arg^3-Nal^4-Gly^5), 2 h at room temperature, dimers.
Compound `C[C@@H]1C(=O)N[C@@H](CCCNC(=N)N)C(=O)N[C@@H](Cc2ccc3ccccc3c2)C(=O)NCC(=O)N[C@H](Cc2ccc(O)cc2)C(=O)N1CCCCCCNC(=O)CCC(=O)NCCCCCCN1C(=O)[C@@H](Cc2ccc(O)cc2)NC(=O)CNC(=O)[C@H](Cc2ccc3ccccc3c2)NC(=O)[C@H](CCCNC(=N)N)NC(=O)[C@H]1C` [Dimer 4, ya(Hex)RNalG butan-1,4-diacid dimer] (I: cyclo([2Nal]G[dY][X3]R) / II: cyclo([2Nal]G[dY][X3]R); linker I:4-II:4 via Suc) gave an IC50 of 5.5 ± 1.4 nM.
Take `C[C@@H]1C(=O)N[C@@H](CCCNC(=N)N)C(=O)N[C@@H](Cc2ccc3ccccc3c2)C(=O)NCC(=O)N[C@H](Cc2ccc(O)cc2)C(=O)N1CCCCCCNC(=O)CCCCC(=O)NCCCCCCN1C(=O)[C@@H](Cc2ccc(O)cc2)NC(=O)CNC(=O)[C@H](Cc2ccc3ccccc3c2)NC(=O)[C@H](CCCNC(=N)N)NC(=O)[C@H]1C` [Dimer 6, ya(Hex)RNalG hexan-1,6-diacid dimer] (I: cyclo([2Nal]G[dY][X3]R) / II: cyclo([2Nal]G[dY][X3]R); linker I:4-II:4 via Adipoyl): the IC50 was found to be 7.8 ± 3.1 nM.
Consider `C[C@@H]1C(=O)N[C@@H](CCCNC(=N)N)C(=O)N[C@@H](Cc2ccc3ccccc3c2)C(=O)NCC(=O)N[C@H](Cc2ccc(O)cc2)C(=O)N1CCCCCCNC(=O)CCCCCCC(=O)NCCCCCCN1C(=O)[C@@H](Cc2ccc(O)cc2)NC(=O)CNC(=O)[C@H](Cc2ccc3ccccc3c2)NC(=O)[C@H](CCCNC(=N)N)NC(=O)[C@H]1C` [Dimer 8, ya(Hex)RNalG octan-1,8-diacid dimer] (I: cyclo([2Nal]G[dY][X3]R) / II: cyclo([2Nal]G[dY][X3]R); linker I:4-II:4 via Suberoyl), for which the IC50 came to 15.9 ± 10.6 nM.
